This passage reports inhibition results from publication PMC6934184, “Selective DNA-PKcs inhibition extends the therapeutic index of localized radiotherapy and chemotherapy” (The Journal of Clinical Investigation, 2019).

The target of this assay is T1, SRC N1 (Homo sapiens, UniProt P12931).
T1 construct: purchased Thermo Fisher Scientific (Life Technologies) SelectScreen
Nature of the assay: SelectScreen Z'LYTE. In kind it is biochemical. In short, it runs like this: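 Percent values come from Thermo SelectScreen profiling of NU5455, combining activity and binding assays. CSF1R was run in Z'LYTE format at Km app ATP, and CAMK1 in Adapta format with ATP listed at 10.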

T1 sequence (P12931 1-542 isoform P12931-2): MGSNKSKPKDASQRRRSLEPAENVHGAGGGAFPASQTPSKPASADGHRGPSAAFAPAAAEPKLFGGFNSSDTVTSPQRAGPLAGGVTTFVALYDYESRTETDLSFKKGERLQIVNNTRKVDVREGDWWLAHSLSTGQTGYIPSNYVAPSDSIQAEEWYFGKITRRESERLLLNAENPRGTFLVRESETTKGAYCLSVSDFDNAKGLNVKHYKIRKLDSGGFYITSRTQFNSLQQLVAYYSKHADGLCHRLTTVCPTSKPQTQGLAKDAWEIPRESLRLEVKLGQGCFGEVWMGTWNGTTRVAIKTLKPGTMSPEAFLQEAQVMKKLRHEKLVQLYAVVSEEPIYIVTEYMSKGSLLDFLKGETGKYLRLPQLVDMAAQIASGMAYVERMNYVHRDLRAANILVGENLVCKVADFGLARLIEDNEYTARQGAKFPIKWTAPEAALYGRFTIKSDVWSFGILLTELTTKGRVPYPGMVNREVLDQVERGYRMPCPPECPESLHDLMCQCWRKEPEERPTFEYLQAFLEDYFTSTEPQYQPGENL

Regarding `CN(C(=O)CN1CCOCC1)c1ccc2sc3c(-c4cccc5c(=O)cc(N6CC7CCC(C6)O7)oc45)cccc3c2c1` [NU5455], the inhibition at 1 µM is 3.9%.
